Consider two compounds from the NIST ThermoML archive (doi:10.1016/j.jct.2013.12.008).

Structures are written as SMILES. ± gives the expanded uncertainty stated by the source.

For this data set the following is noted: 101.33 kPa, Liquid; for viscosity: Capillary tube (Ostwald / Ubbelohde) method; for mass density: Pycnometric method.

`COc1ccccc1` [anisole]: the viscosity is given as 0.989 ± 0.04 mPa·s (298.15 K), 0.906 ± 0.037 mPa·s (308.15 K) and 0.84 ± 0.034 mPa·s (318.15 K). Also, the mass density is, setting by setting: (298.15 K) 988.9 ± 0.8 kg/m3; (308.15 K) 979.5 ± 0.8 kg/m3; (318.15 K) 970.5 ± 0.8 kg/m3.
Turning to `CCOc1ccccc1` [ethoxybenzene], the viscosity is, setting by setting: (298.15 K) 1.223 ± 0.05 mPa·s; (308.15 K) 0.982 ± 0.04 mPa·s; (318.15 K) 0.823 ± 0.034 mPa·s. In addition, the mass density runs as follows: (298.15 K) 960.2 ± 0.6 kg/m3; (308.15 K) 953.4 ± 0.8 kg/m3; (318.15 K) 942.5 ± 0.9 kg/m3.

A word on the viscosity: it is the internal friction of a fluid under shear. Broadly, the mass density is mass per unit of volume.
